Values of other authors in patent US6949636B2, “Intron/exon structure of the human and mouse β3-adrenergic receptor genes” (Centre National de la Recherche Scientifique, priority 1989, dated 2005).

Assays:
[1] = molecular target: mouse β3-adrenergic receptor (Mus musculus, UniProt P25962); settings: background statement, earlier filing / Nahmias et al.
β3-adrenergic receptor = β3-adrenergic receptor (Homo sapiens, UniProt P13945); settings: activity increases in the order salbutamol, BRL 28410, BRL 37344, (1)-isoproterenol; from earlier filings
β3-adrenergic receptor, sequence (P13945 1-402 limits assumed): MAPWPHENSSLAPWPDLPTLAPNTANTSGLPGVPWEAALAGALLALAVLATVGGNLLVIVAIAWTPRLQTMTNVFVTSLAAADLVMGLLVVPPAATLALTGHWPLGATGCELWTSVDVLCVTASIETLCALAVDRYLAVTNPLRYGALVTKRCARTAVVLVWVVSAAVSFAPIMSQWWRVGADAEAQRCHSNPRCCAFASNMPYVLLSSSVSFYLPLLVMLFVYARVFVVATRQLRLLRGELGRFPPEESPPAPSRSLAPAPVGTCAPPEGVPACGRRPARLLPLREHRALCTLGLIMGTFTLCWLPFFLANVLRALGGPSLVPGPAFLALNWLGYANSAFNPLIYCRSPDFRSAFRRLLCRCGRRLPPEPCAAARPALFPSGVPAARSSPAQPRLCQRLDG

mouse β3-adrenergic receptor, sequence (P25962 1-388 limits assumed): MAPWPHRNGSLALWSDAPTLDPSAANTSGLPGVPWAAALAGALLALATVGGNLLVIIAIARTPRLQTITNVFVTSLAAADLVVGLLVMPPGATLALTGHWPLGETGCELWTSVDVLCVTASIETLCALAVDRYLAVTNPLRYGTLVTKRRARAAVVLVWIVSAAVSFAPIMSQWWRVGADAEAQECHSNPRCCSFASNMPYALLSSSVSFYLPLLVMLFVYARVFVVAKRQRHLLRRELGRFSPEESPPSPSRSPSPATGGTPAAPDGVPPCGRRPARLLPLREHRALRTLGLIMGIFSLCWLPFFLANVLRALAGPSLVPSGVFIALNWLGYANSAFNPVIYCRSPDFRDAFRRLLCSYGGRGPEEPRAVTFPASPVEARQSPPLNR

Row | SMILES | activation of mouse β3-adrenergic receptor [1] | activating adenylate cyclase in the presence of an agonist (β3-adrenergic receptor)
1 | C=CCOc1ccccc1OCC(O)CNC(C)C (centres unmarked) [oxprenolol] | can be activated | –
2 | C[C@H](Cc1ccc(C(=O)O)cc1)NC[C@H](O)c1ccccc1 [BRL 28410] | – | activating adenylate cyclase
3 | CC(C)(C)NCC(O)COc1cccc2[nH]c(=O)[nH]c12 (centres unmarked) [CGP 12177A] | can be activated | –
4 | CC(C)(C)NCC(O)c1ccc(O)c(CO)c1 (centres unmarked) [salbutamol] | – | activating adenylate cyclase
5 | CC(C)NCC(O)COc1cccc2[nH]ccc12 (centres unmarked) [pindolol] | can be activated | –
